In paper PMC8857278, “Incomplete tricarboxylic acid cycle and proton gradient in Pandoravirus massiliensis: is it still a virus?” (The ISME Journal, 2021) one finds Km data, which are given here for 1 molecule.

The test system of assay [1] is T1, ORF132.
T1 construct: full-length ORF, 146 residues; N-terminal Strep-tag, codon-optimised synthetic gene in pET22b(+); E. coli BL21(DE3); StrepTrap purified
Kind of assay: isocitrate dehydrogenase activity assay kit, absorbance […] nm, NADH standard curve, Michaelis-Menten fit. The assay is classed as biochemical, Pandoravirus massiliensis. The settings on record: 37 °C, 100 µL, kit buffer; NAD+ or NADP+ co-substrate not specified; varied substrate implied to be isocitrate.

Assay [2] relates to T2, human IDH.
T2 construct: gene IDH1
The settings on record: 37 °C, 100 µL, kit buffer; NAD+ or NADP+ co-substrate not specified; varied substrate implied to be isocitrate.

Consider `O=C(O)C[C@H](C(=O)O)[C@@H](O)C(=O)O` [isocitrate], for which the Km in assay [1] was 51.8 µM; in assay [2], 585 µM.

Broadly, the Km is the substrate concentration at which the rate is half of its maximum.
